Molecular target: recombinant human PDE-10 enzyme (Homo sapiens (Human), UniProt Q9Y233)
Experiment: Molecular Devices IMAP PDE Fluorescence Polarization assay, human PDE-10 inhibition (enzyme assay IC50)
Format: biochemical
Details: recombinant human PDE-10 expressed in baculoviral system; Fluorescein-labeled cAMP/cGMP substrate; 40-minute incubation at 37° C.
Method: In one embodiment, the compounds provided herein were assayed for their ability to inhibit human PDE-10A. In one embodiment, the activities of the compounds were determined using the Molecular Devices IMAP PDE Fluorescence Polarization assay using recombinant human PDE-10 enzyme expressed in a baculoviral system. Briefly, 10 μL of a compound (0.2 nM-20 μM) was added to either a 96-well half area black plate or a 384-well black plate along with 10 μL of Fluorescein-labeled cAMP/cGMP substrate as per manufacturer's instructions and 10 μL of PDE enzyme (activity 0.1 U). Following a 40-minute incubation at 37° C., 60 μL of IMAP binding reagent was added. The plate was then read on a Perkin Elmer Victor (480-535 nm). The data was analyzed using Prism Software (GraphPad Inc, San Diego, Calif.).

recombinant human PDE-10 enzyme, sequence (Q9Y233 whole entry): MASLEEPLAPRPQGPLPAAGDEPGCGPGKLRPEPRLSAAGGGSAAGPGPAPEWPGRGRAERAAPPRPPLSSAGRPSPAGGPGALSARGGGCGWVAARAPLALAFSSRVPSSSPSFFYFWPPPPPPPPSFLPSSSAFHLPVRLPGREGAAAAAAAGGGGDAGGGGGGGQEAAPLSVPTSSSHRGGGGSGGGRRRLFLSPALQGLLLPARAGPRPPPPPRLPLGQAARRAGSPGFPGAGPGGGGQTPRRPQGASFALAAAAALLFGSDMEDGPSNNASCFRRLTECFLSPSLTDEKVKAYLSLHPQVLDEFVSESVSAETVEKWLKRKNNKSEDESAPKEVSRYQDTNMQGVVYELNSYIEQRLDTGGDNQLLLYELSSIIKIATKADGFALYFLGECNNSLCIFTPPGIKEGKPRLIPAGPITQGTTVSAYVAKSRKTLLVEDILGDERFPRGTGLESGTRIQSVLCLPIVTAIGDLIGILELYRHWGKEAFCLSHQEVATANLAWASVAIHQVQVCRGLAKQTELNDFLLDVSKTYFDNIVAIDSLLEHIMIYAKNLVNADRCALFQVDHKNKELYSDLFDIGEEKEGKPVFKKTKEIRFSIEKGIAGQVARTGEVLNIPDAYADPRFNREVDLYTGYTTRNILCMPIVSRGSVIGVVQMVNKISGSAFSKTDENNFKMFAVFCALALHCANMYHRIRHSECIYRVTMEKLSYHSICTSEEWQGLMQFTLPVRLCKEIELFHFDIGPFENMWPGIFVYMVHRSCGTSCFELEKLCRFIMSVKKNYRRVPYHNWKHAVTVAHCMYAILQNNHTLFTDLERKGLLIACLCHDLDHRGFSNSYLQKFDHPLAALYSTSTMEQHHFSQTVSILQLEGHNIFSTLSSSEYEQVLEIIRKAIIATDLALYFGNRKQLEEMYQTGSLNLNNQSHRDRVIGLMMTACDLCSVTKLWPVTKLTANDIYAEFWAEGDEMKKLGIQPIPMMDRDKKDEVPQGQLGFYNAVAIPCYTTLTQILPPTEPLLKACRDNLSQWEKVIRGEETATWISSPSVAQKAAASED

Row | SMILES | IC50
1 | Cc1ncc(C)n2nc(CCc3ccc4c(n3)N(C)C(C)CO4)nc12 (stereo not drawn) [Compound 10, 6-(2-(5,8-dimethyl-[1,2,4]triazolo[1,5-a]pyrazin-2-yl)ethyl)-3,4-dimethyl-3,4-dihydro-2H-pyrido[3,2-b][1,4]oxazine] | 100 to 500 nM
2 | Cc1ncc(C)n2nc(CCc3ccc4c(n3)N[C@@H](C)CO4)nc12 [Compound 8, (S)-6-(2-(5,8-dimethyl-[1,2,4]triazolo[1,5-a]pyrazin-2-yl)ethyl)-3-methyl-3,4-dihydro-2H-pyrido[3,2-b][1,4]oxazine] | 100 to 500 nM
3 | Cc1ncc(C)n2nc(CCc3ccc4c(n3)NC(C)(C)CO4)nc12 [Compound 12, 6-(2-(5,8-dimethyl-[1,2,4]triazolo[1,5-a]pyrazin-2-yl)ethyl)-3,3-dimethyl-3,4-dihydro-2H-pyrido[3,2-b][1,4]oxazine] | 100 to 500 nM
4 | Cc1ncc(C)n2nc(CCc3ccc4c(n3)N[C@H](C)CC4)nc12 [Compound 4, (R)-7-(2-(5,8-dimethyl-[1,2,4]triazolo[1,5-a]pyrazin-2-yl)ethyl)-2-methyl-1,2,3,4-tetrahydro-1,8-naphthyridine] | 10 to 100 nM
5 | CCC1COc2ccc(CCc3nc4c(C)ncc(C)n4n3)nc2N1C (stereo not drawn) [Compound 11, 6-(2-(5,8-dimethyl-[1,2,4]triazolo[1,5-a]pyrazin-2-yl)ethyl)-3-ethyl-4-methyl-3,4-dihydro-2H-pyrido[3,2-b][1,4]oxazine] | > 500 nM
6 | Cc1ncc(C)n2nc(CCc3ccc4c(n3)N[C@@H](C)CC4)nc12 [Compound 5, (S)-7-(2-(5,8-dimethyl-[1,2,4]triazolo[1,5-a]pyrazin-2-yl)ethyl)-2-methyl-1,2,3,4-tetrahydro-1,8-naphthyridine] | 10 to 100 nM
7 | Cc1ccc2ccc(CCc3nc4c(C)ncc(C)n4n3)nc2c1 [Compound 1, 2-(2-(5,8-dimethyl-[1,2,4]triazolo[1,5-a]pyrazin-2-yl)ethyl)-7-methylquinoline] | ≤ 10 nM
8 | Cc1ncc(C)n2nc(CCc3ccc4c(n3)N[C@H](C)CO4)nc12 [Compound 7, (R)-6-(2-(5,8-dimethyl-[1,2,4]triazolo[1,5-a]pyrazin-2-yl)ethyl)-3-methyl-3,4-dihydro-2H-pyrido[3,2-b][1,4]oxazine] | 10 to 100 nM
9 | Cc1ncc(C)n2nc(CCc3ccc4c(n3)NC(C)CC4)nc12 (stereo not drawn) [Compound 3, 7-(2-(5,8-dimethyl-[1,2,4]triazolo[1,5-a]pyrazin-2-yl)ethyl)-2-methyl-1,2,3,4-tetrahydro-1,8-naphthyridine] | 10 to 100 nM
10 | COc1ccc2ccc(CCc3nc4c(C)ncc(C)n4n3)nc2c1 [Compound 2, 2-(2-(5,8-dimethyl-[1,2,4]triazolo[1,5-a]pyrazin-2-yl)ethyl)-7-methoxyquinoline] | ≤ 10 nM
11 | CCC1COc2ccc(CCc3nc4c(C)ncc(C)n4n3)nc2N1 (stereo not drawn) [Compound 9, 6-(2-(5,8-dimethyl-[1,2,4]triazolo[1,5-a]pyrazin-2-yl)ethyl)-3-ethyl-3,4-dihydro-2H-pyrido[3,2-b][1,4]oxazine] | 10 to 100 nM
12 | Cc1ncc(C)n2nc(CCc3ccc4c(n3)NC(C)CO4)nc12 (stereo not drawn) [Compound 6, 6-(2-(5,8-dimethyl-[1,2,4]triazolo[1,5-a]pyrazin-2-yl)ethyl)-3-methyl-3,4-dihydro-2H-pyrido[3,2-b][1,4]oxazine] | 10 to 100 nM
